In BindingDB's records for patent US10285988 (Curegenix, 2019):

Target: Protein Wnt-3a (Human, UniProt P56704)
Experiment: WNT Pathway Reporter Gene Assay
Description: Materials and Methods: NIH3T3 mouse fibroblast cells (American Type Culture Collection, Manassas, Va.) were transfected with a plasmid containing a luciferase gene driven by 5 copies of TCF elements. Stale cells selected with 1 μg/mL of Zeocin (Gibco/Invitrogen, Carlsbad, Calif.) are cultured in Dulbecco's modified Eagle's medium (Invitrogen, Carlsbad, Calif.) supplemented with 10% FBS (Invitrogen), 50 unit/mL penicillin and 50 μg/mL of streptomycin (Invitrogen) at 37° C. with 5% CO2 in air atmosphere. […] After 16 hours, the firefly luciferase activities are measured with the Steady-Glo Luciferase Assay System (Promega). The cells were treated with different concentrations of compounds of this invention during the co-culture. […] To normalize for cell quantity and viability, CellTiter Glo assay is next performed in a duplicate plate.

Sequence of Protein Wnt-3a (P56704 whole entry): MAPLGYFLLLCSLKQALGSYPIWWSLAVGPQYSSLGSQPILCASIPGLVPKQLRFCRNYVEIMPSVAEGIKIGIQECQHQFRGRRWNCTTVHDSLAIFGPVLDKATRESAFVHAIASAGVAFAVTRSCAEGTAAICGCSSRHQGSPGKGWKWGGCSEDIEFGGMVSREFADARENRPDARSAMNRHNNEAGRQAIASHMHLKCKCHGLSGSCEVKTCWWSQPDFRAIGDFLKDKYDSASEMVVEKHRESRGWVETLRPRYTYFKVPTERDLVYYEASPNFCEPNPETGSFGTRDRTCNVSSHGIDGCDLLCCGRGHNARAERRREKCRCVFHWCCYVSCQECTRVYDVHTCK

**Q.** Which IC50 does the source give for Cc1cc(-c2ccc(CNc3nccc4cc(-c5ccnc(C)c5)ncc34)cc2)ccn1 [US10285988, Compound 1] here?
**A.** The IC50 was under 3 nM.

**Q.** Which IC50 does the source give for Cc1cc(-c2cc3ccnc(NCc4ccc(-c5ccnc(C)c5)c(C)c4)c3cn2)ccn1 [US10285988, Compound 2] here?
**A.** The IC50 was under 3 nM.

**Q.** For Cc1cc(-c2cc3ccnc(NCc4ccc(-c5ccnc(F)c5)c(F)c4)c3cn2)ccn1 [US10285988, Compound 28], which IC50 is on record?
**A.** The IC50 was under 3 nM.

**Q.** With Cc1cc(-c2ccc(CNc3nccc4cc(-c5cnccn5)ncc34)cc2)ccn1 [US10285988, Compound 35] as the compound, how does the IC50 read?
**A.** The IC50 was under 3 nM.

**Q.** How did the IC50 turn out when Cc1cc(-c2ncc(CNc3nccc4cc(-c5cnccn5)ccc34)cc2C)ccn1 [US10285988, Compound 70] was run?
**A.** Its IC50 is under 3 nM.
